# Activity calls are given as the source filed them. No cut-off for these calls is given here.
# Assays:
# [1] = tested on: Mus musculus; experiment: Anti-inflammatory activity in Swiss mouse assessed as inhibition of LPS-induced nitric oxide production in pleural washes at 100 ng/kg, ip pretreated for 1 hr followed by LPS stimulation measured after 24 hrs by Lowry/Griess analysis; assay type: functional, organism-based
# [2] = tested on: Mus musculus; experiment: Anti-inflammatory activity in Swiss mouse assessed as inhibition of LPS-induced pleural accumulation in eosiniphils at 100 mg/kg, ip pretreated for 1 hr followed by LPS stimulation and measured after 24 hrs by May-Grunwald-Giemsa staining-based Neubauer chamber based optical microscopy; assay type: functional, organism-based
# [3] = tested on: Mus musculus; experiment: Anti-inflammatory activity in Swiss mouse assessed as inhibition of LPS-induced protein extravasation in thoracic cavity at 100 mg/kg, ip pretreated for 1 hr followed by LPS stimulation and measured after 24 hrs; assay type: functional, organism-based
# [4] = tested on: Mus musculus; experiment: Anti-inflammatory activity in Swiss mouse assessed as inhibition of LPS-induced nitric oxide production in pleural washes at 100 mg/kg, ip pretreated for 1 hr followed by LPS stimulation and measured after 24 hrs by Lowry/Griess analysis; assay type: functional, organism-based
# [5] = tested on: Mus musculus; experiment: Anti-inflammatory activity in ip dosed Swiss Webster mouse assessed as inhibition of carrageenan-induced paw edema pretreated for 60 mins followed by carrageenan administration and measured after 30 mins; assay type: functional
# [6] = Cytotoxicity against Swiss mouse peritoneal macrophages after 24 hrs by LDH-release assay; assay type: cell-based, Peritoneal macrophage
# [7] = target: T1, P2X purinoceptor 7 (Mus musculus, UniProt Q9Z1M0); experiment: Antagonist activity at P2X7 receptor in Swiss mouse peritoneal macrophages assessed as inhibition of BzATP-induced current at holding potential of -60 mV preincubated for 5 mins followed by BzATP addition measured after 5 mins by Whole cell patch-clamp analysis
# T1 sequence (Q9Z1M0 whole entry): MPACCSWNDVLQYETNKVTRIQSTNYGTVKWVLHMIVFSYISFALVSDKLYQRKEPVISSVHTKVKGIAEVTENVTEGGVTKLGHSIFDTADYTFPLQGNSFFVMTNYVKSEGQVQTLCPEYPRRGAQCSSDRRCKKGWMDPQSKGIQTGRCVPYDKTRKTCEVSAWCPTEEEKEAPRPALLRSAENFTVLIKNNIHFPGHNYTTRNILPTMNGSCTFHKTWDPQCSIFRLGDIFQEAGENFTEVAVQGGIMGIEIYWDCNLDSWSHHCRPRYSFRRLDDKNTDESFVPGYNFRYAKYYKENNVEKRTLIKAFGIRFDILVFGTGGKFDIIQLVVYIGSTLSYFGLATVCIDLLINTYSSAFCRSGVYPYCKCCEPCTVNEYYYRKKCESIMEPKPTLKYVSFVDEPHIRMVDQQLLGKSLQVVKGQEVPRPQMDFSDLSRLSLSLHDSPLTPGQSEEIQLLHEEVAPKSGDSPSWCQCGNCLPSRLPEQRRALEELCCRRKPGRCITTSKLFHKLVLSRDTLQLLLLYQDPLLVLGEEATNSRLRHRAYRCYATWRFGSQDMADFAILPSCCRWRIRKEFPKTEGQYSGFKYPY
# [8] = tested on: Peritoneal macrophage; experiment: Toxicity in Swiss mouse peritoneal macrophages assessed as LDH release at 10 uM after 60 mins relative to 0.05% Triton X-100; assay type: cell-based; details: 1 h
# [9] = target: T2, P2X purinoceptor 7 (Mus musculus) (UniProt Q9Z1M0); experiment: (§1) Antagonist activity at P2X7 receptor in Swiss mouse peritoneal macrophages assessed as inhibition of ATP-induced propidium iodide uptake after 25 mins by flow cytometric analysis
# T2 sequence (whole entry): T1 sequence (Q9Z1M0 whole entry)
# [10] = target: T1, P2X purinoceptor 7; experiment: as §1
# [11] = Apparent permeability across apical to basolateral side in human Caco2 cells at 100 uM after 60 mins by lucifer yellow dye-based fluorescence assay; assay type: ADME, cell-based; details: Caco-2
# [12] = tested on: Mus musculus; experiment: Anti-inflammatory activity in ip dosed Swiss Webster mouse assessed as inhibition of ATP-induced paw edema pretreated for 60 mins followed by ATP administration and measured after 30 mins; assay type: functional
# [13] = tested on: Mus musculus; experiment: Anti-inflammatory activity in Swiss mouse assessed as inhibition of LPS-induced pleural accumulation in mononuclear cells at 1 to 100 ng/kg, ip pretreated for 1 hr followed by LPS stimulation and measured after 24 hrs by May-Grunwald-Giemsa staining-based Neubauer chamber based optical microscopy; assay type: functional, organism-based
# [14] = target: P2X purinoceptor 7 (Mus musculus) (UniProt Q9Z1M0); experiment: Antagonist activity at P2X7 receptor in Swiss mouse peritoneal macrophages assessed as inhibition of ATP-induced propidium iodide uptake at 10 uM after 30 mins by FLIPR assay relative to 1 mM ATP
# [15] = tested on: Mus musculus; experiment: Anti-inflammatory activity in Swiss mouse assessed as inhibition of LPS-induced pleural accumulation in total leucocytes at 1 to 100 ng/kg, ip pretreated for 1 hr followed by LPS stimulation and measured after 24 hrs by May-Grunwald-Giemsa staining-based Neubauer chamber based optical microscopy; assay type: functional, organism-based
# [16] = tested on: Mus musculus; experiment: Anti-inflammatory activity in po dosed Swiss Webster mouse assessed as inhibition of carrageenan-induced paw edema pretreated for 60 mins followed by carrageenan administration and measured after 60 mins; assay type: functional
# [17] = tested on: Mus musculus; experiment: Anti-inflammatory activity in Swiss mouse assessed as inhibition of LPS-induced pleural accumulation in eosinophils at 1 to 100 ng/kg, ip pretreated for 1 hr followed by LPS stimulation and measured after 24 hrs by May-Grunwald-Giemsa staining-based Neubauer chamber based optical microscopy; assay type: functional, organism-based
# [18] = Kinetic solubility in pH 2 hydrochloride buffer at 1 to 250 uM after 2 hrs; assay type: physicochemical; details: read-out: Kinetic_solubility
# [19] = n-Octanol/PBS distribution coefficient, log D of the compound at pH 7.4 at 25 mM after 2 hrs; assay type: physicochemical
Structure (SMILES),Activity [1],Activity [2],Activity [3],Activity [4],Activity [5],ID50 [5],CC50 at 24 h [6],IC50 [7],Activity [8],inhibition [9],IC50 [10],"Papp A→B at 1 h, 100 µM [11]",ID50 [12],Activity [13],inhibition [14],Activity [15],ID50 [16],Activity [17],solubility kinetic at 2 h [18],"logD at 2 h, 25000 µM [19]"
O=C(O)Cc1ccccc1Nc1c(Cl)cccc1Cl [DICLOFENAC],inactive,inactive,inactive,inactive,,,,,,,,,,,,,,,,
CCOCc1cn(-c2ccc(Cl)cc2)nn1,,,,,Dose-dependent effect,0.09435 µg/kg,4030 nM,41.1 nM,8.33%,Dose-dependent effect,83 nM,77.4 ×10⁻⁶ cm/s,0.07984 µg/kg,Active,84.7%,Active,0.08049 µg/kg,inactive,< 250 µM,-1.96

# — ChEMBL document CHEMBL4130413, “1-Aryl-1H- and 2-aryl-2H-1,2,3-triazole derivatives blockade P2X7 receptor in vitro and inflammatory response in vivo” (Eur J Med Chem, 2017)
